The experiment relates to 556581-035-R-J1-PDC spheroids with HUVEC/MSC, viability. The experiment in a line: Anticancer human tumor 556581-035-R-J1-PDC patient-derived ovarian carcinoma cell line growth inhibition [IpAb]. The following applies: for viability, T/C: stronger effect = lower value. An excerpt: Combinatorial screen of targeted agents with ipatasertib and abemaciclib in multi-cell type tumor spheroids
A high-throughput screen of multi-cell type tumor spheroids was designed to identify active combinations of targeted small molecules and ipatasertib or abemaciclib. Complex spheroids include a stromal component modeled by human endothelial cells (HUVEC) and fibroblasts modeled by human mesenchymal stem cells (MSCs). The concentration ranges selected for each drug and investigational agent were based upon clinically achievable concentrations if the clinical Cmax of the agent was known.
Compounds. The drugs and investigational agents: ipatasertib (NSC767898), abemaciclib(NSC768073), selumetinib (NSC741078), trametinib (758246), adavosertib (NSC754352), everolimus (NSC733504), sapanisertib (NSC764658), vemurafenib (NSC761431), venetoclax (NSC766270), copanlisib (NSC809693), apelisib (NSC765974), palbociblib (NSC758247), vemurafenib (NSC761431), dabrafenib (NSC764134), ravoxertinib (NSC781343), BMS-387032 (NSC767048), sotorasib (NSC818433), talazoparib (NSC767125) and afursertib (NSC778305), were obtained from the National Cancer Institute (NCI) Developmental Therapeutics Program Chemical Repository. The FDA-approved anticancer drug set is available from the NCI Developmental Therapeutics Program. […] The stock solutions were prepared in dimethyl sulfoxide (DMSO, Sigma-Aldrich, St. Louis, MO, cat. D2650) at 800-fold the tested concentration and stored at -70 degrees C prior to their use. All drugs and investigational agents were tested over a range starting from a high concentration at or near the clinical Cmax and decreasing in half-log increments. If the clinical Cmax for an agent had not been determined, the highest concentration tested was 10 microM.
NCI60 Cell Culture. NCI60 cell lines were obtained from the NCI Developmental Therapeutics Program Tumor Repository. For each lot of cells, the Repository performed Applied Biosystems AmpFLSTR Identifiler testing with PCR amplification to confirm consistency with the published Identifier STR profile for each cell line. Cells were kept in continuous culture for no more than 20 passages. The optimal seeding densities for each of the cell lines at each time point assessed were determined prior to performing the concentration response studies. Briefly, the NCI60 human tumor lines were grown as monolayers in RPMI 1640 medium supplemented with 10% FBS and 2 mmol/L L-glutamine.
An additional 9 lines were from the NCI60 cell line panel including MDA-MB-231 breast carcinoma, MDA-MB-468 breast carcinoma, MCF7 breast carcinoma, Hs578T breast carcinoma, MALME-3M melanoma, SK-MEL-2 melanoma, SK-OV-3 ovarian carcinoma, DU-145 prostate carcinoma, PC-3 prostate carcinoma, all cell lines along with major genetic alterations are listed on Table 2. Pooled donor human umbilical vein endothelial cells (HUVEC, Lonza, cat. CC-2519) and human mesenchymal stem cells (hMSC, Lonza, cat. PT-2501) were purchased from Lonza (Walkersville, MD).
PDMR cell lines were grown in complete medium (DC medium): Dulbecco's modified Eagle's medium (DMEM)/F12 supplemented with 5% fetal bovine serum (FBS), 2 mM L-glutamine, 100 U/mL penicillin and 100 µg/ml streptomycin, 0.4 µg/ml hydrocortisone, 10 ng/ml epidermal growth factor (EGF) recombinant human protein, 24 µg/mL adenine, and 0.1 mg/mL primocin. During culture from frozen stock vials, PDMR cells were cultured in the same medium containing 10 µM Y-27632 (see Table 3). The PDCs were cultured in complete DMEM/F12 media without 10 microM Y-27632 dihydrochloride for at least two passages prior to the screen. The pooled donor HUVEC and hMSC were cultured in endothelial cell growth medium 2 (PromoCell, Heidelberg, Germany, cat. C-22011) and mesenchymal stem cell growth medium 2 (PromoCell, cat. C-28009), respectively. For all experiments, HUVEC and hMSC were used at passages </=5.
[…]

Among the data in PubChem BioAssay AID2060338 (Molecular Pharmacology Branch, DTP, NCI, 2025) are IC50 and viability, T/C values, retold here.

SMILES strings stand for the structures. pIC50: −log10 of the molar value. Several values for one entry are separate records, joined by “and”; a condition that tells them apart may be missing. Equal entries are not always repeated.
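Also: spheroids exposed to compounds for 7 days before readout.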

Turning to `CC(C)(C)c1cnc(CSc2cnc(NC(=O)C3CCNCC3)s2)o1` + CC(C)NCC(C(=O)N1CCN(c2ncnc3c2C(C)CC3O)CC1)c1ccc(Cl)cc1, the pIC50 reads like this: (curve of first compound, second compound 0.1 µM) 6.97; (curve of first compound, second compound 0.316 µM) 6.86; (curve of first compound, second compound 1 µM) 7.26; (curve of first compound, second compound 3.16 µM) 7.37; (curve of first compound, second compound 10 µM) above 8.02. For the same compound, the viability, T/C is 86.1% (second compound 0.1 µM, first compound 0.00949 µM); 116% (second compound 0.1 µM, first compound 0.03 µM); 55.3% (second compound 0.1 µM, first compound 0.0949 µM); 3.48% (second compound 0.1 µM, first compound 0.3 µM); 3.84% (second compound 0.1 µM, first compound 0.949 µM); 2.08% (second compound 0.1 µM, first compound 3 µM). Moreover, the viability, T/C reads like this: (second compound 0.316 µM, first compound 0.00949 µM) 81.1%; (second compound 0.316 µM, first compound 0.03 µM) 89.9%; (second compound 0.316 µM, first compound 0.0949 µM) 71.9%; (second compound 0.316 µM, first compound 0.3 µM) 3.02%; (second compound 0.316 µM, first compound 0.949 µM) 2.73%; (second compound 0.316 µM, first compound 3 µM) 3.48%. The viability, T/C (second compound 1 µM, first compound 0.00949 µM) was 64.6%; the viability, T/C (second compound 1 µM, first compound 0.03 µM) was 65.4%; the viability, T/C (second compound 1 µM, first compound 0.0949 µM) was 36.7%; the viability, T/C (second compound 1 µM, first compound 0.3 µM) is 2.25%; the viability, T/C (second compound 1 µM, first compound 0.949 µM) was 2.57%; the viability, T/C (second compound 1 µM, first compound 3 µM) is 3.16%. Further, the viability, T/C reads like this: (second compound 3.16 µM, first compound 0.00949 µM) 56.4%; (second compound 3.16 µM, first compound 0.03 µM) 55.7%; (second compound 3.16 µM, first compound 0.0949 µM) 36.6%; (second compound 3.16 µM, first compound 0.3 µM) 2.16%; (second compound 3.16 µM, first compound 0.949 µM) 3.96%; (second compound 3.16 µM, first compound 3 µM) 2.31%. The viability, T/C is 46.1% (second compound 10 µM, first compound 0.00949 µM); 44.2% (second compound 10 µM, first compound 0.03 µM); 11.5% (second compound 10 µM, first compound 0.0949 µM); 2.21% (second compound 10 µM, first compound 0.3 µM); 1.45% (second compound 10 µM, first compound 0.949 µM); 1.36% (second compound 10 µM, first compound 3 µM).

Consider `CC(C)n1nc(-c2ccc3oc(N)nc3c2)c2c(N)ncnc21`, for which the viability, T/C (compound 0.000316 µM) is 99.2% and 88.1%; the viability, T/C (compound 0.001 µM) is 62.2% and 89.2%; the viability, T/C (compound 0.00316 µM) is 70.7% and 66.5%; the viability, T/C (compound 0.01 µM) is 45.7% and 44.2%; the viability, T/C (compound 0.0316 µM) was 34.7% and 34%; the viability, T/C (compound 0.1 µM) is 25.1% and 23.4%. Also, for the setting “curve of compound”, the pIC50 is 8.11.

`Cn1ncnc1[C@H]1c2n[nH]c(=O)c3cc(F)cc(c23)N[C@@H]1c1ccc(F)cc1`: the viability, T/C was 120% and 97.9% (compound 0.000316 µM); 106% and 94.6% (compound 0.001 µM); 91.1% and 85.3% (compound 0.00316 µM); 76.8% and 86.8% (compound 0.01 µM); 73.8% and 78.4% (compound 0.0316 µM); 68% and 62.8% (compound 0.1 µM). In addition, the pIC50 (curve of compound) is below 7.00.

For `Cn1ncc(Cl)c1-c1cc(C(=O)NC(CN)Cc2cccc(F)c2)sc1Cl` (stereo not drawn), the viability, T/C by setting is: (compound 0.0316 µM) 90.6% and 96.9%; (compound 0.1 µM) 81% and 74.5%; (compound 0.316 µM) 71.5% and 69.2%; (compound 1 µM) 60.2% and 70.8%; (compound 3.16 µM) 52.5% and 47.6%; (compound 10 µM) 0.3% and 0.29%. The pIC50 (curve of compound) is 5.63 and 5.62.

Take `CC1(C)CCC(CN2CCN(c3ccc(C(=O)NS(=O)(=O)c4ccc(NCC5CCOCC5)c([N+](=O)[O-])c4)c(Oc4cnc5[nH]ccc5c4)c3)CC2)=C(c2ccc(Cl)cc2)C1`: the viability, T/C is, setting by setting: (compound 0.0316 µM) 105% and 99.1%; (compound 0.1 µM) 103% and 102%; (compound 0.316 µM) 95.2% and 99%; (compound 1 µM) 94% and 108%; (compound 3.16 µM) 105% and 97.4%; (compound 10 µM) 27.4% and 15.8%. Moreover, the pIC50 (curve of compound) was 5.16 and 5.21.

What is called pIC50 is −log10 of the IC50, conventionally taken in molar units. One may read the viability, T/C as the ratio of treated to control.
